Measurements: PubChem BioAssay (NCI)
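1) Cells in 96-well plates. 2) Compound, 48 h, 5 concentrations. 3) Linear interpolation between surrounding doses. 4) Unreached endpoint = highest concentration. TGI denotes the concentration required for complete inhibition of growth.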

Tests used:
Assay in all cases: DTP human tumour cell line panel, 48 h
[1] = tested on: 786-0 renal
[2] = tested on: A498 renal
[3] = tested on: A549 NSCLC
[4] = tested on: ACHN renal
[5] = tested on: CCRF-CEM leukemia
[6] = tested on: COLO 205 colon
[7] = tested on: DMS 114 small cell lung
[8] = tested on: EKVX NSCLC
[9] = tested on: HCC-2998 colon
[10] = tested on: HCT-15 colon
[11] = tested on: HL-60(TB) leukemia
[12] = tested on: HOP-18 NSCLC
[13] = tested on: HOP-62 NSCLC
[14] = tested on: IGROV1 ovarian
[15] = tested on: K-562 leukemia
[16] = tested on: KM12 colon
[17] = tested on: KM20L2 colon
[18] = tested on: LOX IMVI melanoma
[19] = tested on: LXFL 529 NSCLC
[20] = tested on: M14 melanoma
[21] = tested on: M19-MEL melanoma
[22] = tested on: MALME-3M melanoma
[23] = tested on: MOLT-4 leukemia
[24] = tested on: NCI-H226 lung
[25] = tested on: NCI-H23 lung
[26] = tested on: NCI-H460 lung
[27] = tested on: NCI-H522 lung
[28] = tested on: OVCAR-3 ovarian
[29] = tested on: OVCAR-5 ovarian
[30] = tested on: OVCAR-8 ovarian
[31] = tested on: RPMI-8226 leukemia
[32] = tested on: RXF 393 renal
[33] = tested on: RXF-631 renal
[34] = tested on: SF-268 CNS
[35] = tested on: SF-295 CNS
[36] = tested on: SF-539 CNS
[37] = tested on: SK-MEL-2 melanoma
[38] = tested on: SK-MEL-28 melanoma
[39] = tested on: SK-MEL-5 melanoma
[40] = tested on: SK-OV-3 ovarian
[41] = tested on: SN12C renal
[42] = tested on: SNB-19 CNS
[43] = tested on: SNB-75 CNS
[44] = tested on: SNB-78 CNS
[45] = tested on: SW-620 colon
[46] = tested on: TK-10 renal
[47] = tested on: U251 CNS
[48] = tested on: UACC-257 melanoma
[49] = tested on: UACC-62 melanoma
[50] = tested on: UO-31 renal
[51] = tested on: CAKI-1 renal
[52] = tested on: DLD-1 colon
[53] = tested on: DMS 273 small cell lung
[54] = tested on: HCT-116 colon
[55] = tested on: HOP-92 NSCLC
[56] = tested on: HT29 colon
[57] = tested on: SR leukemia
[58] = tested on: XF 498 CNS
[59] = tested on: OVCAR-4 ovarian

## Cc1cc(C(O)CCCc2ccccc2)cc(C)c1O (stereo not drawn)
[1]
  TGI: > 100 µM
[2]
  TGI: 81.3 µM
[3]
  TGI: > 100 µM
[4]
  TGI: 92.3 µM
[5]
  TGI: > 100 µM
[6]
  TGI: > 100 µM
[7]
  TGI: > 100 µM
[8]
  TGI: 75.9 µM
[9]
  TGI: > 100 µM
[10]
  TGI: > 100 µM
[11]
  TGI: 41.9 µM
[12]
  TGI: > 100 µM
[13]
  TGI: > 100 µM
[14]
  TGI: > 100 µM
[15]
  TGI: > 100 µM
[16]
  TGI: > 100 µM
[17]
  TGI: > 100 µM
[18]
  TGI: > 100 µM
[19]
  TGI: > 100 µM
[20]
  TGI: > 100 µM
[21]
  TGI: > 100 µM
[22]
  TGI: 64.3 µM
[23]
  TGI: 73.8 µM
[24]
  TGI: > 100 µM
[25]
  TGI: > 100 µM
[26]
  TGI: > 100 µM
[27]
  TGI: > 100 µM
[28]
  TGI: > 100 µM
[29]
  TGI: > 100 µM
[30]
  TGI: > 100 µM
[31]
  TGI: > 100 µM
[32]
  TGI: 60 µM
[33]
  TGI: > 100 µM
[34]
  TGI: > 100 µM
[35]
  TGI: 93.9 µM
[36]
  TGI: > 100 µM
[37]
  TGI: 70.3 µM
[38]
  TGI: > 100 µM
[39]
  TGI: 48.9 µM
[40]
  TGI: > 100 µM
[41]
  TGI: > 100 µM
[42]
  TGI: 67.2 µM
[43]
  TGI: 78 µM
[44]
  TGI: > 100 µM
[45]
  TGI: > 100 µM
[46]
  TGI: > 100 µM
[47]
  TGI: > 100 µM
[48]
  TGI: 95.6 µM
[49]
  TGI: > 100 µM
[50]
  TGI: 60.4 µM

## NNC(=O)N/N=C(/CC1(O)C(=O)Nc2ccc(Br)cc21)c1ccccc1 (stereo not drawn)
[1]
  TGI: > 100 µM
[3]
  TGI: > 100 µM
[4]
  TGI: > 100 µM
[51]
  TGI: > 100 µM
[5]
  TGI: 65.2 µM
[52]
  TGI: > 100 µM
[53]
  TGI: > 100 µM
[8]
  TGI: > 100 µM
[54]
  TGI: 72.6 µM
[10]
  TGI: > 100 µM
[11]
  TGI: 51.7 µM
[55]
  TGI: 63.8 µM
[56]
  TGI: > 100 µM
[14]
  TGI: > 100 µM
[15]
  TGI: 69.1 µM
[16]
  TGI: 87.5 µM
[17]
  TGI: > 100 µM
[18]
  TGI: 35.1 µM
[19]
  TGI: > 100 µM
[20]
  TGI: > 100 µM
[21]
  TGI: > 100 µM
[22]
  TGI: > 100 µM
[23]
  TGI: 44.2 µM
[24]
  TGI: > 100 µM
[25]
  TGI: > 100 µM
[27]
  TGI: 46.6 µM
[28]
  TGI: > 100 µM
[31]
  TGI: > 100 µM
[33]
  TGI: > 100 µM
[34]
  TGI: > 100 µM
[35]
  TGI: > 100 µM
[36]
  TGI: > 100 µM
[37]
  TGI: 85.2 µM
[38]
  TGI: > 100 µM
[40]
  TGI: > 100 µM
[41]
  TGI: > 100 µM
[42]
  TGI: 46.2 µM
[43]
  TGI: > 100 µM
[44]
  TGI: > 100 µM
[57]
  TGI: 87.8 µM
[45]
  TGI: > 100 µM
[46]
  TGI: > 100 µM
[48]
  TGI: > 100 µM
[49]
  TGI: 50.9 µM
[50]
  TGI: 49.3 µM
[58]
  TGI: 38.5 µM

## O=S(O)CCCCCSSc1ccc(Cl)cc1
[2]
  TGI: 36.6 µM
[5]
  TGI: > 100 µM
[52]
  TGI: 67.5 µM
[8]
  TGI: > 100 µM
[9]
  TGI: 73.7 µM
[54]
  TGI: 77.2 µM
[11]
  TGI: > 100 µM
[13]
  TGI: 41.3 µM
[56]
  TGI: 70.5 µM
[15]
  TGI: > 100 µM
[16]
  TGI: 60.7 µM
[18]
  TGI: 29.9 µM
[19]
  TGI: 27 µM
[20]
  TGI: 71.5 µM
[21]
  TGI: 91 µM
[22]
  TGI: 89.9 µM
[25]
  TGI: 44.4 µM
[26]
  TGI: > 100 µM
[27]
  TGI: 28.5 µM
[28]
  TGI: 31.3 µM
[59]
  TGI: > 100 µM
[29]
  TGI: 50.2 µM
[32]
  TGI: 31.4 µM
[33]
  TGI: 46.8 µM
[34]
  TGI: 23.5 µM
[36]
  TGI: 29.5 µM
[37]
  TGI: 34.7 µM
[38]
  TGI: 66.6 µM
[40]
  TGI: > 100 µM
[41]
  TGI: 31.1 µM
[42]
  TGI: 91.4 µM
[43]
  TGI: 56.2 µM
[44]
  TGI: 70.3 µM
[46]
  TGI: 54.4 µM
[47]
  TGI: 21.7 µM
[48]
  TGI: 59.3 µM
[50]
  TGI: 26.3 µM
[58]
  TGI: 36 µM

## Cc1cc(N(CCC#N)CCC#N)ccc1/C(Sc1ccccc1)=C(\NC(=O)/C=C/c1ccccc1)C(=O)Sc1ccccc1
[1]
  TGI: 8.8 µM
[2]
  TGI: 16.5 µM
[3]
  TGI: 16 µM
[4]
  TGI: 18.7 µM
[51]
  TGI: 12.1 µM
[5]
  TGI: 15.3 µM
[6]
  TGI: 7.71 µM
[52]
  TGI: 9.95 µM
[7]
  TGI: 4.53 µM
[53]
  TGI: 26.2 µM
[8]
  TGI: 54.2 µM
[9]
  TGI: 23.9 µM
[54]
  TGI: 9.79 µM
[10]
  TGI: 26.4 µM
[11]
  TGI: 5.08 µM
[12]
  TGI: 51.1 µM
[13]
  TGI: 8.53 µM
[55]
  TGI: 15 µM
[56]
  TGI: 11.8 µM
[14]
  TGI: 2.78 µM
[15]
  TGI: > 58.7 µM
[16]
  TGI: 15.3 µM
[17]
  TGI: 8.09 µM
[18]
  TGI: 2.52 µM
[19]
  TGI: 12.6 µM
[20]
  TGI: 6.3 µM
[21]
  TGI: 14.7 µM
[22]
  TGI: 25 µM
[23]
  TGI: 8.27 µM
[24]
  TGI: 10.7 µM
[25]
  TGI: 11.2 µM
[26]
  TGI: 23.4 µM
[27]
  TGI: 1.82 µM
[28]
  TGI: 15.8 µM
[59]
  TGI: 18.6 µM
[29]
  TGI: 16.3 µM
[30]
  TGI: 18.6 µM
[31]
  TGI: 6.07 µM
[32]
  TGI: 4.5 µM
[33]
  TGI: > 32.2 µM
[34]
  TGI: 3.81 µM
[35]
  TGI: 14.7 µM
[36]
  TGI: 3.44 µM
[37]
  TGI: 16.6 µM
[38]
  TGI: 18.5 µM
[39]
  TGI: 16.3 µM
[40]
  TGI: 19.8 µM
[41]
  TGI: 7.29 µM
[42]
  TGI: 38.2 µM
[43]
  TGI: 17.7 µM
[44]
  TGI: 24.6 µM
[57]
  TGI: > 31.5 µM
[45]
  TGI: 15.3 µM
[46]
  TGI: 25.2 µM
[47]
  TGI: 5.83 µM
[48]
  TGI: 25.9 µM
[49]
  TGI: 12.3 µM
[50]
  TGI: 6.15 µM
[58]
  TGI: 30.4 µM
